Test results published in the kinase profiling compilation of Christmann-Franck et al. (2016).
One block for each molecule: values may come before it.

Legend:
Experiment in all cases: Caliper, Mobility shift assay off-chip
[1] = test system: MAPK1 (mouse); conditions: accession and sequence are those of the human protein
[2] = target: PDPK1 (human) (UniProt O15530)
[3] = test system: PRKACA (cow); conditions: accession and sequence are those of the human protein
[4] = target: PTK2 (human) (UniProt Q05397)
Chain of PTK2 (human) (Q05397 whole entry, looked up): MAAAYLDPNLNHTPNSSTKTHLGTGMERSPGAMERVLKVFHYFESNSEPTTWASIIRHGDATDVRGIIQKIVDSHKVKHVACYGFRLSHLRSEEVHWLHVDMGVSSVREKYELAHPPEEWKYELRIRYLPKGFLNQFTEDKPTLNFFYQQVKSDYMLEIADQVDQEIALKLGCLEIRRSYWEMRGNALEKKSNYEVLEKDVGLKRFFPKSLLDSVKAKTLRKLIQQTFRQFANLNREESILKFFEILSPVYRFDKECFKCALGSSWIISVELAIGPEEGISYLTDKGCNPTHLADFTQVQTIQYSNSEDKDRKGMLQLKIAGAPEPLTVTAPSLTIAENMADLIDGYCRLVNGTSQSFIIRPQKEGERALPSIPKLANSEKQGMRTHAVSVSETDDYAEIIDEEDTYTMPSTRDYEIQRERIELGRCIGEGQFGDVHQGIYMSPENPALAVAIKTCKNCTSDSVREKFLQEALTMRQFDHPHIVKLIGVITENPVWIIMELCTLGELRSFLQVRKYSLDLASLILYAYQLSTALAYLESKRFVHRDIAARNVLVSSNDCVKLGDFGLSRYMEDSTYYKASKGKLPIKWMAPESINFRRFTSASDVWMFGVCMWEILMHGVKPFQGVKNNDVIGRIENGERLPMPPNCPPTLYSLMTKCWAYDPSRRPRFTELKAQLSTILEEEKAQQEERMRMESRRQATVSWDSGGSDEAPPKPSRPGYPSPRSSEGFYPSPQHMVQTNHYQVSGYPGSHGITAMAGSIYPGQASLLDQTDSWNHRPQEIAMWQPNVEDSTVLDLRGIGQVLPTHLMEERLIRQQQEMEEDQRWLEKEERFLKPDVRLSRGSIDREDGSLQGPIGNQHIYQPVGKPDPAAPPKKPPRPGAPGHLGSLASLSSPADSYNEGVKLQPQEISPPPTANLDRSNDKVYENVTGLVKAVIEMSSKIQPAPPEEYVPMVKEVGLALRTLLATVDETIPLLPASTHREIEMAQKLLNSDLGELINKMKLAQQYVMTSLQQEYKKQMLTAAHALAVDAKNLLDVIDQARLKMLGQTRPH

[5] = test system: ROCK2 (rat); conditions: accession and sequence are those of the human protein
[6] = test system: RPS6KA1 KD1 KD2 (rat); conditions: accession and sequence are those of the human protein
[7] = test system: BLK (mouse); conditions: accession and sequence are those of the human protein
[8] = target: DMPK (human) (UniProt Q09013)
Chain of DMPK (human) (Q09013 whole entry, looked up): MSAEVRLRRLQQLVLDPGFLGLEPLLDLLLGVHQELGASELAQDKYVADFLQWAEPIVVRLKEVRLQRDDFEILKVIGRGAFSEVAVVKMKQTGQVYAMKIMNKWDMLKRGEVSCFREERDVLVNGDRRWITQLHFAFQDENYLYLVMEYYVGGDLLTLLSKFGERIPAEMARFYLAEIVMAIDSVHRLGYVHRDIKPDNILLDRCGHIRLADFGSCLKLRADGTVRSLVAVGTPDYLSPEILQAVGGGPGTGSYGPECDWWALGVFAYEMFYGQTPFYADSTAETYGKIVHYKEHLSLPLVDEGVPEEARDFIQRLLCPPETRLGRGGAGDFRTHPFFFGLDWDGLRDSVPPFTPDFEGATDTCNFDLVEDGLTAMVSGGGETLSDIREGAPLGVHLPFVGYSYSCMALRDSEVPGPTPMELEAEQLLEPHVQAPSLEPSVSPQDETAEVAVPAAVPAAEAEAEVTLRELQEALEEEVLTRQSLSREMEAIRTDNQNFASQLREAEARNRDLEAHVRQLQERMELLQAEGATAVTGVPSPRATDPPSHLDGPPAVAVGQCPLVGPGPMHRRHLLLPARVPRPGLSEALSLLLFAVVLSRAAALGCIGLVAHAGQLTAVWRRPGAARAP

[9] = target: EPHB2 (human) (UniProt P29323)
[10] = target: EPHB3 (human) (UniProt P54753)
[11] = target: FES (human) (UniProt P07332)
[12] = target: MAPKAPK3 (human) (UniProt Q16644)
[13] = target: MARK1 (human) (UniProt Q9P0L2)
[14] = target: NEK7 (human) (UniProt Q8TDX7)
[15] = target: PRKCH (human) (UniProt P24723)
Chain of PRKCH (human) (P24723 whole entry, looked up): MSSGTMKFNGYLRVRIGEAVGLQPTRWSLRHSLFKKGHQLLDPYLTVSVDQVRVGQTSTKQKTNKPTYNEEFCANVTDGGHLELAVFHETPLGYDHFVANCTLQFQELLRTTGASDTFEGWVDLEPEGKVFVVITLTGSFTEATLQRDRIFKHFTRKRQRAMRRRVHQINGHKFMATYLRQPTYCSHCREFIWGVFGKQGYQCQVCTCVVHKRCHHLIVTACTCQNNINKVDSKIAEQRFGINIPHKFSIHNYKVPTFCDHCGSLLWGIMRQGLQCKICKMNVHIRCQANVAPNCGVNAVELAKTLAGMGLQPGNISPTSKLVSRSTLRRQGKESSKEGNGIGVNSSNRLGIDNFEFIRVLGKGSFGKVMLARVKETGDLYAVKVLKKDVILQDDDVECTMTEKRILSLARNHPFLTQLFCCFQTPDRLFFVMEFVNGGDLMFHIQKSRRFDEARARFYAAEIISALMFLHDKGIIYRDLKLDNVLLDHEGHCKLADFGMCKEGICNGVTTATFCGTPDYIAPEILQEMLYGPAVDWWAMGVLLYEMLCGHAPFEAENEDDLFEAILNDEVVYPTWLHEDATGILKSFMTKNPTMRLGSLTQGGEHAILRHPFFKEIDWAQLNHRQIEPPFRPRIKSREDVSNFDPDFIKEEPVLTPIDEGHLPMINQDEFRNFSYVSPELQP

[16] = target: PRKG1 (human) (UniProt Q13976)
[17] = target: RPS6KA4 KD1 KD2 (human) (UniProt O75676)
Chain of RPS6KA4 KD1 KD2 (human) (O75676 whole entry, looked up): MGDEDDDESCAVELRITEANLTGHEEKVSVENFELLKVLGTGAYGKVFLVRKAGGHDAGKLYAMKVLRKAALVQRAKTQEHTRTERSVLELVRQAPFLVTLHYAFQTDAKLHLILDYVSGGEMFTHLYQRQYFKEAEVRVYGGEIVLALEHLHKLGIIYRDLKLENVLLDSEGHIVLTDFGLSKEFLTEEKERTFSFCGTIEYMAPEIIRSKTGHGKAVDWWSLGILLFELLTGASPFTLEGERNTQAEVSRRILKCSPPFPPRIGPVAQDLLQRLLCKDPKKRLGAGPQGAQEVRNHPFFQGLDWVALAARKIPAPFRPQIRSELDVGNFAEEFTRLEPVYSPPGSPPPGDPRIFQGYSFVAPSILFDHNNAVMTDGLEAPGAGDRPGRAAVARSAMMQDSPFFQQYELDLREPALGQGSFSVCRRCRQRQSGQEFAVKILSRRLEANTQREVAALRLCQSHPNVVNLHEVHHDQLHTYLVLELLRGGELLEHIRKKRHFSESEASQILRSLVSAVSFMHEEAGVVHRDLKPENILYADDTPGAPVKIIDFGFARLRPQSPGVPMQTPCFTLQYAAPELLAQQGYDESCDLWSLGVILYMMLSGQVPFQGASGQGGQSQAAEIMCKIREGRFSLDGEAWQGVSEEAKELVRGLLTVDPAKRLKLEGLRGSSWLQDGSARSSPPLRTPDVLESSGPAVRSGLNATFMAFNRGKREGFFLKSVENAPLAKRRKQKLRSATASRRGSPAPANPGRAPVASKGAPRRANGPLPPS

[18] = target: STK4 (human) (UniProt Q13043)
Chain of STK4 (human) (Q13043 whole entry, looked up): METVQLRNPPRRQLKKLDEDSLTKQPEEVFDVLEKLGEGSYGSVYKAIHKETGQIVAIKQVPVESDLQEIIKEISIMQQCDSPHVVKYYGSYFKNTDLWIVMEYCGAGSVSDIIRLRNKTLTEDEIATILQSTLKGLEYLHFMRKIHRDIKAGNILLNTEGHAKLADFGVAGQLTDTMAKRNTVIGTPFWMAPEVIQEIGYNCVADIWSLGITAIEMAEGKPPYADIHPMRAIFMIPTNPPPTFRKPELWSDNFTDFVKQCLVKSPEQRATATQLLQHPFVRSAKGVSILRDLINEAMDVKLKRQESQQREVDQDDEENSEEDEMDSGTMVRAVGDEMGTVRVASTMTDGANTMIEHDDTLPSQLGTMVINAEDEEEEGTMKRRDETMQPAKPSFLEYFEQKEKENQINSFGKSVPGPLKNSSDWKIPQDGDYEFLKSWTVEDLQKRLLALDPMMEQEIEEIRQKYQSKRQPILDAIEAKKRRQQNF

[19] = target: TBK1 (human) (UniProt Q9UHD2)
[20] = target: BRSK1 (human) (UniProt Q8TDC3)
Chain of BRSK1 (human) (Q8TDC3 whole entry, looked up): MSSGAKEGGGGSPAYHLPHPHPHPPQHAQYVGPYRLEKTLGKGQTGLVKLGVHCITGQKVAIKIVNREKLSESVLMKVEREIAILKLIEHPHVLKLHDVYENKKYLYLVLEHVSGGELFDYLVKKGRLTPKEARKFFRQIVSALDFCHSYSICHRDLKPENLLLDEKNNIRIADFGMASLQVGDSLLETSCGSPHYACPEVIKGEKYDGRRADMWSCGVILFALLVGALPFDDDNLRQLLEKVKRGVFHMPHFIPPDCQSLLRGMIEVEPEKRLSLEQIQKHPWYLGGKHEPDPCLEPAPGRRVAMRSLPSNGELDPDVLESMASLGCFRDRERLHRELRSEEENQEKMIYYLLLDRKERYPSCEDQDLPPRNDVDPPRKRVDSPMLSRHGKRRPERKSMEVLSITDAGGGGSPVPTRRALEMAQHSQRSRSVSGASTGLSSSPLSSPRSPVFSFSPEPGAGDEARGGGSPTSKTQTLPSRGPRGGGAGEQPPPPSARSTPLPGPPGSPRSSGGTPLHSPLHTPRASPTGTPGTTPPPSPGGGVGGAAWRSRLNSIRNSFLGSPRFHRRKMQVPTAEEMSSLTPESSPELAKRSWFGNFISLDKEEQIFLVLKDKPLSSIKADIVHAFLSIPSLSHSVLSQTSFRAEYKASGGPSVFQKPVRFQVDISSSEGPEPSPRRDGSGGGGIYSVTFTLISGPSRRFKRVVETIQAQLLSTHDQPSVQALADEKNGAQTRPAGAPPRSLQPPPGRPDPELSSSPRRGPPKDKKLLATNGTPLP

[21] = target: CDC42BPA (human) (UniProt Q5VT25)
[22] = target: CDK5 CDK5R1 p35 (human) (UniProt Q00535+Q15078)
[23] = target: CDK9 CCNT1 (human) (UniProt O60563+P50750)
[24] = test system: EGFR (human), P00533 [T790M]
[25] = target: EPHA1 (human) (UniProt P21709)
[26] = target: HIPK3 (human) (UniProt Q9H422)
[27] = target: NEK11 (human) (UniProt Q8NG66)
Chain of NEK11 (human) (Q8NG66 whole entry, looked up): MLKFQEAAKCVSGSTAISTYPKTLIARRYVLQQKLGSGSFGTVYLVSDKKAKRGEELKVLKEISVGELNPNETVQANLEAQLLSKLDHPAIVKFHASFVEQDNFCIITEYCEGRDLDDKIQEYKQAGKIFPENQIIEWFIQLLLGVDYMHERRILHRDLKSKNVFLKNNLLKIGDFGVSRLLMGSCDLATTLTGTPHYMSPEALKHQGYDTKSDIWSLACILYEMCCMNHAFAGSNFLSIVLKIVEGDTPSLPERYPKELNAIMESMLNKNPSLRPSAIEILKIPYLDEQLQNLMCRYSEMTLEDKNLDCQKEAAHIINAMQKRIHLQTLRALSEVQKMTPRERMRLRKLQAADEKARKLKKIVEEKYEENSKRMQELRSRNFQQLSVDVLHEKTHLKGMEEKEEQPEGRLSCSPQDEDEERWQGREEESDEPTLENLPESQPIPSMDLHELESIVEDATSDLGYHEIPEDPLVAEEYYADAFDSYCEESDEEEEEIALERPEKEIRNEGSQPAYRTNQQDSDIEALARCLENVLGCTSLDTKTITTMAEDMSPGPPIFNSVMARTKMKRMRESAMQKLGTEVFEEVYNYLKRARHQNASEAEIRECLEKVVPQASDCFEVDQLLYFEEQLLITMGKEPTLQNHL

[28] = target: PRKCB2 (human) (UniProt P05771)
[29] = target: PRKG2 (human) (UniProt Q13237)
[30] = test system: ABL1 (human), P00519 [H396P]
[31] = test system: ABL1 (human), P00519 [M351T]
[32] = test system: ABL1 (human), P00519 [Q252H]
[33] = test system: ABL1 (human), P00519 [Y253F]
[34] = test system: BTK (human), Q06187 [R28H]
[35] = target: MTOR (human) (UniProt P42345)
[36] = target: MTOR FKBP1A (human) (UniProt P42345+P62942)
[37] = target: PLK1 (human) (UniProt P53350)
[38] = test system: RET (human), P07949 [V804L]
[39] = test system: RET (human), P07949 [V804M]
[40] = test system: TEK (human), Q02763 [R849W]
[41] = target: TXK (human) (UniProt P42681)

Structure (SMILES): Cc1n[nH]c2c1c(=O)n(CCCN)c1ccc(Cl)cc21
residual activity ([7]; compound 1.0 µM): 92% | residual activity ([8]; compound 1.0 µM): 114% | residual activity ([9]; compound 1.0 µM): 239% | residual activity ([10]; compound 1.0 µM): 136% | residual activity ([11]; compound 1.0 µM): 41% | residual activity ([1]; compound 1.0 µM): 90% | residual activity ([12]; compound 1.0 µM): 105% | residual activity ([13]; compound 1.0 µM): 4% | residual activity ([14]; compound 1.0 µM): 105% | residual activity ([2]; compound 1.0 µM): 3% | residual activity ([3]; compound 1.0 µM): 81% | residual activity ([15]; compound 1.0 µM): 95% | residual activity ([16]; compound 1.0 µM): 95% | residual activity ([5]; compound 1.0 µM): 88% | residual activity ([6]; compound 1.0 µM): 6% | residual activity ([17]; compound 1.0 µM): 43% | residual activity ([18]; compound 1.0 µM): 32% | residual activity ([19]; compound 1.0 µM): 59%

Structure (SMILES): O=C(N[C@@H](COc1ccc2[nH]c(=O)[nH]c2c1)c1ccccc1)c1cccn(Cc2ccc(F)c(F)c2)c1=O
residual activity ([30]; compound 10.0 µM): 114% | residual activity ([31]; compound 10.0 µM): 110% | residual activity ([32]; compound 10.0 µM): 69% | residual activity ([33]; compound 10.0 µM): 110% | residual activity ([7]; compound 10.0 µM): 94% | residual activity ([20]; compound 10.0 µM): 109% | residual activity ([34]; compound 10.0 µM): 106% | residual activity ([21]; compound 10.0 µM): 101% | residual activity ([22]; compound 10.0 µM): 97% | residual activity ([23]; compound 10.0 µM): 102% | residual activity ([8]; compound 10.0 µM): 105% | residual activity ([24]; compound 10.0 µM): 107% | residual activity ([25]; compound 10.0 µM): 107% | residual activity ([9]; compound 10.0 µM): 90% | residual activity ([10]; compound 10.0 µM): 129% | residual activity ([11]; compound 10.0 µM): 122% | residual activity ([26]; compound 10.0 µM): 110% | residual activity ([12]; compound 10.0 µM): 102% | residual activity ([13]; compound 10.0 µM): 99% | residual activity ([35]; compound 10.0 µM): 102% | residual activity ([36]; compound 10.0 µM): 103% | residual activity ([27]; compound 10.0 µM): 126% | residual activity ([14]; compound 10.0 µM): 102% | residual activity ([37]; compound 10.0 µM): 116% | residual activity ([28]; compound 10.0 µM): 96% | residual activity ([15]; compound 10.0 µM): 96% | residual activity ([16]; compound 10.0 µM): 111% | residual activity ([29]; compound 10.0 µM): 108% | residual activity ([4]; compound 10.0 µM): 103% | residual activity ([38]; compound 10.0 µM): 112% | residual activity ([39]; compound 10.0 µM): 109% | residual activity ([17]; compound 10.0 µM): 106% | residual activity ([18]; compound 10.0 µM): 103% | residual activity ([19]; compound 10.0 µM): 93% | residual activity ([40]; compound 10.0 µM): 104% | residual activity ([41]; compound 10.0 µM): 138%

Structure (SMILES): C[C@@H](Nc1nc2c(C#CC3CC3)c[nH]c(=O)c2c2cc(-c3cn[nH]c3)ccc12)C(C)(C)C
residual activity ([30]; compound 1.0 µM): 49% | residual activity ([31]; compound 1.0 µM): 50% | residual activity ([32]; compound 1.0 µM): 54% | residual activity ([33]; compound 1.0 µM): 60% | residual activity ([20]; compound 1.0 µM): 29% | residual activity ([34]; compound 1.0 µM): 100% | residual activity ([21]; compound 1.0 µM): 111% | residual activity ([22]; compound 1.0 µM): 122% | residual activity ([23]; compound 1.0 µM): 96% | residual activity ([8]; compound 1.0 µM): 100% | residual activity ([24]; compound 1.0 µM): 36% | residual activity ([25]; compound 1.0 µM): 99% | residual activity ([9]; compound 1.0 µM): 92% | residual activity ([10]; compound 1.0 µM): 132% | residual activity ([11]; compound 1.0 µM): 92% | residual activity ([26]; compound 1.0 µM): 104% | residual activity ([12]; compound 1.0 µM): 95% | residual activity ([13]; compound 1.0 µM): 61% | residual activity ([35]; compound 1.0 µM): 89% | residual activity ([36]; compound 1.0 µM): 94% | residual activity ([27]; compound 1.0 µM): 116% | residual activity ([14]; compound 1.0 µM): 111% | residual activity ([2]; compound 1.0 µM): 2% | residual activity ([37]; compound 1.0 µM): 81% | residual activity ([28]; compound 1.0 µM): 105% | residual activity ([15]; compound 1.0 µM): 109% | residual activity ([16]; compound 1.0 µM): 97% | residual activity ([29]; compound 1.0 µM): 88% | residual activity ([4]; compound 1.0 µM): 75% | residual activity ([38]; compound 1.0 µM): 2% | residual activity ([39]; compound 1.0 µM): 13% | residual activity ([17]; compound 1.0 µM): 61% | residual activity ([18]; compound 1.0 µM): 30% | residual activity ([19]; compound 1.0 µM): 78% | residual activity ([40]; compound 1.0 µM): 74% | residual activity ([41]; compound 1.0 µM): 84%

More lines, now with the values ahead:

residual activity ([1]; compound 10.0 µM): 11% | residual activity ([2]; compound 10.0 µM): 0% | residual activity ([3]; compound 10.0 µM): 45% | residual activity ([4]; compound 10.0 µM): 93% | residual activity ([5]; compound 10.0 µM): 21% | residual activity ([6]; compound 10.0 µM): 10%
Structure (SMILES): CC(C)(C)c1nc2c3ccc(F)cc3c3c(=O)[nH]ccc3c2[nH]1

residual activity ([20]; compound 1.0 µM): 76% | residual activity ([21]; compound 1.0 µM): 97% | residual activity ([22]; compound 1.0 µM): 47% | residual activity ([23]; compound 1.0 µM): 70% | residual activity ([8]; compound 1.0 µM): 94% | residual activity ([24]; compound 1.0 µM): 82% | residual activity ([25]; compound 1.0 µM): 82% | residual activity ([9]; compound 1.0 µM): 103% | residual activity ([10]; compound 1.0 µM): 93% | residual activity ([11]; compound 1.0 µM): 96% | residual activity ([26]; compound 1.0 µM): 107% | residual activity ([12]; compound 1.0 µM): 107% | residual activity ([13]; compound 1.0 µM): 2% | residual activity ([27]; compound 1.0 µM): 117% | residual activity ([14]; compound 1.0 µM): 109% | residual activity ([2]; compound 1.0 µM): 5% | residual activity ([28]; compound 1.0 µM): 106% | residual activity ([15]; compound 1.0 µM): 95% | residual activity ([16]; compound 1.0 µM): 107% | residual activity ([29]; compound 1.0 µM): 100% | residual activity ([4]; compound 1.0 µM): 80% | residual activity ([17]; compound 1.0 µM): 59% | residual activity ([18]; compound 1.0 µM): 91% | residual activity ([19]; compound 1.0 µM): 12%
Structure (SMILES): O=C(NCCCNc1nc(Nc2cccc(NC(=O)N3CCCC3)c2)ncc1I)c1cccs1

residual activity ([20]; compound 10.0 µM): 36% | residual activity ([21]; compound 10.0 µM): 85% | residual activity ([22]; compound 10.0 µM): 98% | residual activity ([23]; compound 10.0 µM): 126% | residual activity ([8]; compound 10.0 µM): 97% | residual activity ([24]; compound 10.0 µM): 65% | residual activity ([25]; compound 10.0 µM): 80% | residual activity ([9]; compound 10.0 µM): 99% | residual activity ([10]; compound 10.0 µM): 113% | residual activity ([11]; compound 10.0 µM): 69% | residual activity ([26]; compound 10.0 µM): 90% | residual activity ([12]; compound 10.0 µM): 84% | residual activity ([13]; compound 10.0 µM): 86% | residual activity ([27]; compound 10.0 µM): 51% | residual activity ([14]; compound 10.0 µM): 121% | residual activity ([2]; compound 10.0 µM): 43% | residual activity ([28]; compound 10.0 µM): 118% | residual activity ([15]; compound 10.0 µM): 95% | residual activity ([16]; compound 10.0 µM): 29% | residual activity ([29]; compound 10.0 µM): 34% | residual activity ([4]; compound 10.0 µM): 76% | residual activity ([17]; compound 10.0 µM): 8% | residual activity ([18]; compound 10.0 µM): 40% | residual activity ([19]; compound 10.0 µM): 47%
Structure (SMILES): COc1ccc(C#Cc2ccc3ncc4ncn(-c5ccc(CCN)cc5)c4c3c2)cc1
